Holding throughout (assay type): in vivo
Experiment [1] has as its system db/db mice. Kind of experiment: HbA1c change Day 1 to Day 15 in db/db mice, Compound A and metformin (Example 1-3). Particulars: Compound A 30 mg/kg and/or metformin 300 mg/kg by gavage once a day for 14 days. As for the experimental part: (§1) The antidiabetic action resulting from the combination of an insulin-sensitizing drug and a biguanide was studied by using db/db mice (8 weeks old, male, CLEA Japan, Inc.). The db/db mice were allocated to 4 groups (8 mice/group). Among the 4 groups, a vehicle (0.5% methylcellulose solution) was administered to Group 1 by gavage once a day for 14 days from the day of grouping (Day 1); Compound A (30 mg/kg) was administered to Group 2, metformin (300 mg/kg) was administered to Group 3, and Compound A (30 mg/kg) and metformin (300 mg/kg) were administered to Group 4 under the same condition as Group 1. Blood glucose and HbAlc levels were measured on Day 11 and Day 15, respectively.

Experiment [2] concerns db/db mice. Briefly: Blood glucose level on Day 11 in db/db mice, Compound A and metformin (Example 1-3). The conditions noted are these: Compound A 30 mg/kg and/or metformin 300 mg/kg by gavage once a day for 14 days; for Blood glucose level: Day 11, mean ± SD, n = 8, in mg/dL (unit assumed). As for the experimental part:
as §1

Experiment [3] has as its system C57BL/KsJ-db/db mice. Kind of experiment: Blood glucose after glibenclamide administration in db/db mice repeatedly given Compound A (Example 1-1). The conditions noted are these: for Blood glucose level after the glibenclamide administration (relative value when blood glucose level at 0 hr is 100%) / Area under the curve of blood glucose level after the glibenclamide administration (relative value when blood glucose level at 0 hr is 100%): vehicle or Compound A 30 mg/kg once a day 15 days, next day vehicle or glibenclamide 10 mg/kg by gavage, n = 8; for Blood glucose level after the glibenclamide administration (relative value when blood glucose level at 0 hr is 100%): feed removed; for Blood glucose level after the glibenclamide administration (relative value when blood glucose level at 0 hr is 100%) / Area under the curve of blood glucose level after the glibenclamide administration (relative value when blood glucose level at 0 hr is 100%) / Blood glucose level before the glibenclamide administration: mean ± SD; for Decrease of blood glucose levels after glibenclamide/vehicle administration (in words): vehicle or Compound A 30 mg/kg 15 days, then vehicle or glibenclamide 10 mg/kg; for Blood glucose level before the glibenclamide administration: Compound A 30 mg/kg by gavage once a day for 15 days, next day, before glibenclamide/vehicle, n = 8, 30 mg/kg. As for the experimental part: The antidiabetic action resulting from the combination of an insulin secretagogue (SU drug) and Compound A was studied by using C57BL/KsJ-db/db mice (hereinafter, referred to as “db/db mice”) (9 weeks old, male, CLEA Japan, Inc.) as a model of type 2 diabetes. The db/db mice were allocated to 4 groups (8 mice/group), and each group was put into a cage provided with feed. Among the 4 groups, a vehicle (0.5% methylcellulose solution) was administered to Groups 1 and 2 by gavage once a day for 15 days, and Compound A (30 mg/kg) was administered to Groups 3 and 4 under the same condition as Groups 1 and 2. On the next day after the last administration, the vehicle was administered to Groups 1 and 3, and glibenclamide (10 mg/kg) was administered to Groups 2 and 4, both by gavage; then the feed were removed from the cages and the changes in blood glucose levels were studied in each group. […]

Experiment [4] deals with C57BL/KsJ-db/db mice. Briefly: Blood insulin after glibenclamide administration in db/db mice repeatedly given Compound A (Example 1-1). The conditions noted are these: vehicle or Compound A 30 mg/kg once a day 15 days, next day vehicle or glibenclamide 10 mg/kg by gavage, mean ± SD, n = 8. As for the experimental part: The antidiabetic action resulting from the combination of an insulin secretagogue (SU drug) and Compound A was studied by using C57BL/KsJ-db/db mice (hereinafter, referred to as “db/db mice”) (9 weeks old, male, CLEA Japan, Inc.) as a model of type 2 diabetes. The db/db mice were allocated to 4 groups (8 mice/group), and each group was put into a cage provided with feed. Among the 4 groups, a vehicle (0.5% methylcellulose solution) was administered to Groups 1 and 2 by gavage once a day for 15 days, and Compound A (30 mg/kg) was administered to Groups 3 and 4 under the same condition as Groups 1 and 2. On the next day after the last administration, the vehicle was administered to Groups 1 and 3, and glibenclamide (10 mg/kg) was administered to Groups 2 and 4, both by gavage; then the feed were removed from the cages and the changes in blood glucose levels were studied in each group.
As a result, blood insulin level was higher in Group 4 (i.e. repeatedly administered with Compound A and then with glibenclamide) than in Groups 1 and 2 (i.e. repeatedly administered with the vehicle).

Experiment [5] deals with db/db mice. Briefly: Oral glucose tolerance test on Day 28 in db/db mice given agents in feed (Example 1-2). Particulars: feed with 0.02 (w/w) % Compound A and/or 0.06 (w/w) % sitagliptin; for Blood glucose level after the glucose load on Day 28 / Area under the curve of blood glucose level after the glucose load on Day 28: OGTT 2 g/kg glucose, mean ± SD, n = 8; for Blood glucose level after the glucose load on Day 28: fasted overnight; for Area under the curve of blood glucose level in oral glucose tolerance test versus control (in words): Day 28. The source says:
(§2) The antidiabetic action resulting from the combination of an insulin secretagogue (DPP-4 inhibitor) and Compound A was studied by using db/db mice (8 weeks old, male, CLEA Japan, Inc.). The db/db mice were allocated to 4 groups (8 mice/group). The mice in Group 1 were given powdered feed (control), Group 2 were given powdered feed containing 0.02 (w/w) % of Compound A, Group 3 were given powdered feed containing 0.06 (w/w) % of sitagliptin, and Group 4 were given powdered feed containing 0.02 (w/w) % of Compound A and 0.06 (w/w) % of sitagliptin. In addition, the powdered feed mentioned-above were all the same (i.e. trade name: CE-2, CLEA Japan, Inc.). An oral glucose tolerance test was performed on Day 28. To be more specific, on the day before the test, the mice were fasted overnight; and on the test day, 2 g/kg of glucose was administered by gavage to study the changes in blood glucose levels. Glycosylated hemoglobin (hereinafter, referred to as “HbAlc”) was measured on Day 33.

Experiment [6] relates to db/db mice. Briefly: HbA1c change to Day 33 in db/db mice given agents in feed (Example 1-2). Particulars: start of experiment to Day 33, feed with 0.02 (w/w) % Compound A and/or 0.06 (w/w) % sitagliptin; for Amounts of change in HbA1c before and after treatment: mean ± SD, n = 8.
From the text: as §2

For `CN(C)C(=N)N=C(N)N` [Metformin, metformin, reference compound], in the experiment on db/db mice [1], the “Amount of change in HbA1c” value was 1.09 ± 0.16. Also, in the experiment on db/db mice [2], the “Blood glucose level (Day 11) and amount of HbA1c change (Day 1 to Day 15); single agents versus vehicle, combination versus single agents (in words)” value was “significant decrease of blood glucose level and amount of HbAlc change”; the Blood glucose level was 323.5 ± 66.3.

On to `COc1ccc(Cl)cc1C(=O)NCCc1ccc(S(=O)(=O)NC(=O)NC2CCCCC2)cc1` [Glibenclamide, glibenclamide, reference compound], for which the “Blood glucose level after the glibenclamide administration (relative value when blood glucose level at 0 hr is 100%)” value in the experiment on C57BL/KsJ-db/db mice [3] (1 hr) was 96.2 ± 7.7%; in the experiment with C57BL/KsJ-db/db mice [3] (2 hr), 91.3 ± 5.9%; in the experiment on C57BL/KsJ-db/db mice [3] (4 hr), 82.9 ± 12.7%; in the experiment on C57BL/KsJ-db/db mice [3] (6 hr) it was 80.9 ± 12.1%. The “Decrease of blood glucose levels after glibenclamide/vehicle administration (in words)” value with C57BL/KsJ-db/db mice [3] was “no decrease in blood glucose levels”. Besides, the “Area under the curve of blood glucose level after the glibenclamide administration (relative value when blood glucose level at 0 hr is 100%)” value in the experiment with C57BL/KsJ-db/db mice [3] worked out at 530.0 ± 35.1 % · hr. For the same molecule, the “Blood insulin level after the glibenclamide administration (relative value when insulin level at 0 hr is 100%)” value with C57BL/KsJ-db/db mice [4] (1 hr) was 75.1 ± 25.1%; in the experiment on C57BL/KsJ-db/db mice [4] (2 hr) it was 83.3 ± 21.4%. Also, the “Area under the curve of blood insulin level after the glibenclamide administration (relative value when insulin level at 0 hr is 100%)” value in the experiment with C57BL/KsJ-db/db mice [4] came to 166.7 ± 31.5 % · hr.

In the case of `Cc1ccc(C(=O)c2cccn2C/C=C/c2ccc(COC(C)(C)C(=O)O)cc2)cc1` [Compound A, 2-methyl-2-[(4-{(1E)-3-[2-(4-methylbenzoyl)-1H-pyrrol-1-yl]prop-1-en-1-yl}benzyl)oxy]propanoic acid], the “Blood glucose level after the glucose load on Day 28” value is on record as 146 ± 33 mg/dL in the experiment with db/db mice [5] (0 min); 500 ± 62 mg/dL in the experiment with db/db mice [5] (10 min); 633 ± 57 mg/dL in the experiment on db/db mice [5] (30 min); 566 ± 41 mg/dL with db/db mice [5] (60 min); 457 ± 74 mg/dL in the experiment on db/db mice [5] (90 min); 412 ± 82 mg/dL with db/db mice [5] (120 min). For the same molecule, the “Area under the curve of blood glucose level in oral glucose tolerance test versus control (in words)” value with db/db mice [5] is listed as “significant difference was not observed”. Besides, in the experiment with db/db mice [5], the “Area under the curve of blood glucose level after the glucose load on Day 28” value turned out to be 59692 ± 4741 mg·min/dL. In the experiment with db/db mice [1], the “Amount of change in HbA1c” value is given as 0.93 ± 0.28. Moreover, in the experiment on db/db mice [2], the “Blood glucose level (Day 11) and amount of HbA1c change (Day 1 to Day 15); single agents versus vehicle, combination versus single agents (in words)” value is “significant decrease of blood glucose level and amount of HbAlc change”. Also, the Blood glucose level in the experiment on db/db mice [2] was found to be 321.9 ± 43.5. For the same molecule, in the experiment on db/db mice [6], the “Change in HbA1c versus control (in words)” value is recorded as “A difference was not observed”. Moreover, the “Amounts of change in HbA1c before and after treatment” value in the experiment on db/db mice [6] amounted to 1.28 ± 0.53%. For the same molecule, the “Blood glucose level after the glibenclamide administration (relative value when blood glucose level at 0 hr is 100%)” value in the experiment with C57BL/KsJ-db/db mice [3] (1 hr) is 100.2 ± 10.2%; with C57BL/KsJ-db/db mice [3] (2 hr), 96.1 ± 14.2%; with C57BL/KsJ-db/db mice [3] (4 hr), 93.8 ± 15.9%; with C57BL/KsJ-db/db mice [3] (6 hr) it was 93.6 ± 14.1%. For the same molecule, the “Blood glucose level before the glibenclamide administration” value in the experiment on C57BL/KsJ-db/db mice [3] (group later given glibenclamide) came out at 323.4 ± 75.7 mg/dL; in the experiment on C57BL/KsJ-db/db mice [3] (group later given vehicle), 332.1 ± 90.8 mg/dL. Moreover, in the experiment on C57BL/KsJ-db/db mice [3], the “Decrease of blood glucose levels after glibenclamide/vehicle administration (in words)” value is recorded as “did not”. The “Area under the curve of blood glucose level after the glibenclamide administration (relative value when blood glucose level at 0 hr is 100%)” value in the experiment on C57BL/KsJ-db/db mice [3] turned out to be 575.6 ± 73.0 % · hr. The figures for the “Blood insulin level after the glibenclamide administration (relative value when insulin level at 0 hr is 100%)” value in the experiment on C57BL/KsJ-db/db mice [4] (1 hr) and with C57BL/KsJ-db/db mice [4] (2 hr) were 55.9 ± 15.8% and 61.6 ± 17.3%, respectively. In the experiment with C57BL/KsJ-db/db mice [4], the “Area under the curve of blood insulin level after the glibenclamide administration (relative value when insulin level at 0 hr is 100%)” value stood at 136.8 ± 17.7 % · hr.

Regarding `N[C@@H](CC(=O)N1CCn2c(nnc2C(F)(F)F)C1)Cc1cc(F)c(F)cc1F` [Sitagliptin, sitagliptin, reference compound], the “Blood glucose level after the glucose load on Day 28” value in the experiment on db/db mice [5] (0 min) stood at 167 ± 15 mg/dL; in the experiment on db/db mice [5] (10 min) it was 542 ± 81 mg/dL; in the experiment with db/db mice [5] (30 min), 588 ± 125 mg/dL; in the experiment with db/db mice [5] (60 min) it was 510 ± 95 mg/dL; in the experiment with db/db mice [5] (90 min) it was 455 ± 100 mg/dL; in the experiment on db/db mice [5] (120 min), 408 ± 107 mg/dL. Also, the “Area under the curve of blood glucose level in oral glucose tolerance test versus control (in words)” value with db/db mice [5] is listed as “significant difference was not observed”. Besides, the “Area under the curve of blood glucose level after the glucose load on Day 28” value in the experiment with db/db mice [5] stood at 57680 ± 10679 mg·min/dL. Also, the “Change in HbA1c versus control (in words)” value with db/db mice [6] was “A difference was not observed”. In addition, in the experiment on db/db mice [6], the “Amounts of change in HbA1c before and after treatment” value is listed as 1.68 ± 0.51%.

For the origin of these results see patent publication US20110212892A1, “AGENT FOR TREATMENT OF DIABETES” (Dainippon Sumitomo Pharma Co., Ltd., priority 2008, published 2011).
